Experimental data taken from ChEMBL document CHEMBL1157539, “Thousands of chemical starting points for antimalarial lead identification” (Nature, 2010).

Test system: Plasmodium falciparum
Assay: GSK_TCMDC: Inhibition of Plasmodium falciparum 3D7 in whole erythrocytes, using parasite LDH activity as an index of growth.
Assay type: functional, organism-based
Conditions: Plasmodium falciparum, 3D7

Structure (SMILES)	XC50 [nM]
O=C(Nc1ccc(OC(F)(F)F)cc1)NC1CCN(c2ccnc3ccccc23)CC1	297
CCN(CC)CCCC(C)Nc1ccnc2[nH]c3ccccc3c12 (stereo unspecified)	1770
O=C(/C=C/c1ccc(Cl)c(Cl)c1)N1CCN(C(=O)Nc2ccc(F)c(Cl)c2)CC1	724
O=C(NCc1ccc(Cl)c(Cl)c1)c1ccc(C2CCN(Cc3ccc4[nH]cnc4c3)CC2)cc1	957
COc1cc(C)nc2ccc(NC(=O)c3cc([N+](=O)[O-])cc([N+](=O)[O-])c3)cc12	385
N#Cc1cccc(C(O)C2CN(CCC3CCCCC3)CCC2(O)c2ccccc2)c1 (stereo unspecified)	129
CN(C)CCCOc1ccc(CN2CCC(c3c[nH]c4ccc(NCC5CCCCC5)cc34)CC2)cc1	678
CCn1ccc2c(N3CCCCS3(=O)=O)cc(C(=O)N[C@@H](Cc3ccccc3)[C@H](O)CNC(C)(C)c3cccc(C(F)(F)F)c3)cc21	133
COc1ccc2nc3cc(Cl)ccc3c(NCCCCCCNc3c4ccc(Cl)cc4nc4ccc(OC)cc34)c2c1	661
Cc1nc2ccc3ccc(CNc4ccc(C#N)cc4)cc3c2c(=O)[nH]1	1440
Cc1cc(F)ccc1-c1nc(N(C)CCN(C)C(=O)N(C)c2ccccc2)nc2c1ccc(=O)n2-c1c(F)cccc1F	1240
CCN(CC)/C(=N/C(=N)Nc1ccc(C)cc1)NCCCCCCN/C(=N\C(=N)Nc1ccc(C)cc1)N(CC)CC	539
O=C(NCC1CC1)C1Cc2c([nH]c3ccc(Br)cc23)C2(CCN(CCc3ccccc3)CC2)N1 (stereo unspecified)	908
O=C(/C=C/c1ccc(Cl)c(Cl)c1)NC1CCC(CN2CCC(Cc3c[nH]c4ccccc34)CC2)CC1 (stereo unspecified)	888
CCN(CCNC(=O)Nc1cc(C(F)(F)F)cc(C(F)(F)F)c1)c1cccc(C)c1	804
COc1ccc(-c2nc(NCc3ccccc3)c3cc(OC)c(OC)cc3n2)cc1	398
Cc1nc(C)c(CC(=O)Nc2ccc(-c3ccc(-c4nc5cc(C(F)(F)F)ccc5[nH]4)s3)cc2)s1	1030
CCCCCN1CCC(NC(=O)c2ccc(C(=O)Nc3ccc(C(C)C)cc3)cc2)CC1	845
Cc1nc2ccc3ccc(CNc4ccc(C(=O)N[C@@H](CCC(=O)O)C(=O)N[C@@H](Cc5cccs5)C(=O)O)c(F)c4)cc3c2c(=O)[nH]1	787
Cc1cc(N[C@@H](CC(C)C)C(=O)Nc2ccccc2)nc(NCC2CCCCC2)n1	874
C=CCc1cc(OC)ccc1OCCCOc1c(C)nc(N)nc1N	3.2
CC(C)n1cc(CN2CCCC(C(=O)Nc3cccc(-c4cc5ccccc5[nH]4)c3)C2)cn1 (stereo unspecified)	999
c1ccc(CNc2nc(NCCc3c[nH]cn3)nc(NCc3cccc4ccccc34)n2)cc1	1110
COc1ccc(Nc2nc(NCc3ccc(-n4ccnc4)cc3)cc(-c3ccc(OC)cc3)n2)cc1	827

Structure (SMILES)	XC50 [nM]
CC(C)Sc1ccc(Cl)cc1CON1C(=N)N=C(N)NC1(C)C	3.2
O=S(=O)(NCCN1CCCC1)c1ccc(-c2ccc(CNC3Cc4ccccc4C3)cc2)s1	590
COc1cc(CN=C(S)NN=C(C)c2ccccn2)cc(OC)c1OC	396
Cn1nc2ccc3ccccc3c2nc1=N	773
Cc1ccc(C(=O)Nc2ccc(Cl)c(N3CCN(CCc4ccccc4)CC3)c2)cc1	926
Cc1ccc(Cl)cc1N1CCN(CCCNC(=O)C2CCN(c3nc4ccccc4[nH]3)CC2)CC1	895
Fc1ccc(-c2oc(C3CCN(CCc4ccc(-c5noc(=S)[nH]5)cc4)CC3)nc2COCC(F)(F)F)cc1	418
COc1cccc2c(N/N=C/c3ccc([N+](=O)[O-])cc3)ccnc12	888
COc1ccc(C(=O)Cn2nc(-c3ccc(Cl)cc3)ccc2=O)c(OC)c1	498
Cc1ccc(O)c(C(=O)c2cnc3c(c2)c(-c2ccc(F)cc2)c(C#N)c(=O)n3C)c1	971
COc1ccccc1C1CCN(C2CCC(NC(=O)/C=C/c3cc(C(F)(F)F)ccc3F)CC2)CC1 (stereo unspecified)	868
O=C(NC1CCN(Cc2ccc(Cl)cc2)CC1)c1cn(-c2ccccc2)nc1-c1cccnc1	972
COc1c(C2CCN(CCCCNC(=O)c3ccc(-c4ccc(Cl)cc4)c(OCC(N)=O)c3)CC2)ccc2c1CCCC2	1010
O=C(Nc1cccc(-c2cccc(-c3nc4cc(F)ccc4[nH]3)c2)c1)c1csnn1	788
Fc1cccc(COc2ccc(Nc3ncnc4sc(C#Cc5ncc[nH]5)cc34)cc2Cl)c1	134
c1ccc(-c2ccc3c(Nc4ccc5[nH]ccc5c4)ccnc3c2)nc1	943
COc1ccc(CNC2Cc3ccccc3C2)cc1-c1ccc(OC)c(S(=O)(=O)NCCN2CCCC2)c1	773
CN1Cc2cc(NC(=O)/C=C/c3ccccc3Cl)ccc2C(C)(C)C1	641
Cc1ccc(NC(=O)c2ccc3ncccc3c2)cc1OC1CCN(Cc2ccco2)C1 (stereo unspecified)	1250
O=S(=O)(c1c(Cl)cc(Cl)cc1Cl)N1CCCCC(c2ccc(F)c(F)c2)=N1	594
CCC(C)c1ccc(NC(=O)Nc2ccnc3ccccc23)cc1 (stereo unspecified)	625
CN1CC[C@@H](Oc2cc(CNC(=O)c3ccc(-c4ccc(Cl)cc4)s3)ccc2C(F)(F)F)C1	1030
CCC[C@@H]([C@@H](CC1CCCCC1)C(=O)N[C@@H](CCCCNS(C)(=O)=O)C(=O)Nc1nccs1)N(O)C=O	81.1
CCCCCCNC(=O)C1Cc2c([nH]c3ccccc23)C2(CCN(CCc3ccccc3)CC2)N1 (stereo unspecified)	1140

Structure (SMILES)	XC50 [nM]
O=C(N[C@H]1CCCC[C@H]1C(=O)O)c1ccccc1	781
Cc1ccc2oc3cc(-c4nnn[nH]4)ccc3c(=O)c2c1	89.4
c1ccc(C2=NN=C(c3ccccn3)C3C4CC(C23)C2C3CC(c5ccccc53)C42)nc1 (stereo unspecified)	853
Nc1c2c(nc3ccc(NC(=O)c4ccccc4)cc13)CCCC2	611
CC(C)(C)c1ccc(CN2CCC(CNC(=O)c3cc(-c4ccccc4Cl)cs3)C2)cc1 (stereo unspecified)	856
O=C(Nc1ccc(CN2CCCCC2)cc1)c1ccc(COc2ccc([N+](=O)[O-])cc2)o1	996
O=C(Nc1cccc(-c2ccc(-c3nc4cc(C(F)(F)F)ccc4[nH]3)s2)c1)c1cccnc1	363
Cc1cc(Oc2cc(NC(=O)c3sc4ncn(Cc5ccccc5F)c(=O)c4c3C)cc([N+](=O)[O-])c2)ccc1Cl	1150
O=S(=O)(c1c(Cl)cc(Cl)cc1Cl)N1CCCCC(c2ccc(C(F)(F)F)cc2)=N1	95
CCN(Cc1cccc2ccccc12)c1ccc2nc(N)nc(N)c2c1	3.2
CN(c1ccc2c(c1)nc(NCc1ccc(F)cc1)n2C)c1ccnc(Nc2ccc(CS(C)(=O)=O)cc2)n1	828
CC(C)N(Cc1ccc(-c2ccc(C(F)(F)F)cc2)cc1)C(=O)Cn1c(SCc2cccc(F)c2F)cc(=O)c2cc(CN3CCCCC3)ccc21	872
Cc1ccc(Cn2cnc(N3CC(C)NC(C)C3)cc2=O)cc1NC(=O)Nc1ccc(-c2ccccc2)cc1 (stereo unspecified)	851
CCOc1ccc(-c2nonc2NC(=O)c2ccc(OC)cc2)cc1OCC	822
Cc1nc(N)nc(N)c1-c1ccc(Br)c(Br)c1	53.6
Cc1cc(-c2cccc(CNCc3ccccc3)c2)ccc1S(=O)(=O)NCCN1CCCC1	732
CNC(=O)Cc1ccc(C(=O)Nc2cccc(-c3cccc(-c4nc5cc(C(F)(F)F)ccc5[nH]4)c3)c2)cc1	440
COc1cc(Nc2nccn3c(-c4ccsc4)cnc23)cc(OC)c1OC	890
O=C(NC1CCN(Cc2ccccc2)CC1)c1ccc(-c2nc3cc(Cl)c(Cl)cc3[nH]2)s1	308
COc1ccc2nccc(N(C)CC3(O)CCC(NCc4cc5c(cn4)OCCO5)CC3)c2n1 (stereo unspecified)	675
CCN(CC)CCN(Cc1ccc(-c2ccc(C(F)(F)F)cc2)cc1)C(=O)Cn1c(CCc2cc(F)cc(F)c2F)nc(=O)c2ccccc21	756
Cc1noc(C)c1C(=O)N1CCc2cc3nccc(N4CCN5CCC[C@H]5C4)c3cc21	874
Cc1ccc(CNC(=O)[C@H](CCCN)Nc2cc(C)nc(Nc3ccccc3)n2)cc1	1290
COc1ccc(CN2CCC2=O)c(OC)c1	122

Structure (SMILES)	XC50 [nM]
OC1CCCN(Cc2ccc(-c3ccc(-c4nc5cc(F)ccc5[nH]4)s3)cc2)C1 (stereo unspecified)	851
Cc1cc(-c2cccc3c(C(=O)N4CCc5cc6nccc(N7CCN8CCC[C@H]8C7)c6cc54)cccc23)cc(C)n1	709
CC(=O)Nc1ccc(C2NC(=O)NC(c3ccccc3)=C2c2nc3ccccc3s2)cc1 (stereo unspecified)	1110
COc1ccc(NC(=O)c2ccc(-c3ccc(-c4cccnc4)cc3)c(C)c2)cc1OCCN(C)C	201
Cc1cc(N2CCCC2)nc(Nc2ccc(NC(=O)CC(C)C)cc2)n1	841
Cn1nc(-c2ccc(S(=O)(=O)N3CCC(CCN4CCC(c5c[nH]c6ccccc56)CC4)CC3)s2)cc1C(F)(F)F	815
CN1C(=O)C(=NN=C(S)N2CCOCC2)c2ccccc21	901
O=C(NCCN1CCCC1)c1cc(-c2ccc(Cl)c(O)c2)c(-c2ccncc2)o1	1630
Oc1ccc(CCNc2nc(NCCCOc3cc(CN4CCCCC4)ccc3F)nc(N3CCNCC3)n2)cc1	1760
CCc1cc2c(Sc3nnc(N)s3)ncnc2s1	659
COc1cc(Cc2c(C)nc3nc(N)nc(N)c3c2C)c(Br)c(OC)c1OC	404
COc1cccc(CN2CCC3(CC2)CN(C(=O)Nc2ccc(Cl)c(Cl)c2)C3)c1	752
NC(=O)C1CCN(Cc2ccc(-c3ccc(-c4nc5cc(C(F)(F)F)ccc5[nH]4)s3)cc2)CC1	540
COc1ccccc1C1CCN(C2CCC(NC(=O)/C=C/c3cc(F)cc(C(F)(F)F)c3)CC2)CC1 (stereo unspecified)	901
CCCCCN1CCC(NC(=O)c2ccc(C(=O)Nc3ccc(C(C)C)cc3)cc2)C1 (stereo unspecified)	954
COc1ccc(CNC2CCN(c3ccc(NC(=O)c4cccc(Cl)c4)cc3)CC2)cc1OC	1020
CCOc1ccc2nc(N(CCCn3ccnc3)C(=O)C=Cc3cccs3)sc2c1	777
Nc1nc(N)c2c(ccc3c2ccn3Cc2cc3c(cc2Cl)OCO3)n1	3.2
COc1ccc(CNC2CCN(C)CC2)cc1-c1ccc(S(=O)(=O)NCCc2ccccn2)c(C)c1	1150
CC(=O)c1cc(N2CCCC2)ccc1N	15.5
CN1CCC(NCCS(=O)(=O)c2cccc(Nc3ccc(-c4cccc(F)c4)cn3)c2)CC1	1360
Nc1nc(N)c2c(Oc3cccnc3)cccc2n1	886
COc1ccc(Cc2cccc(C(C(=O)NCc3cc(Cl)cc(Cl)c3)N3CCN(C)CC3)c2)cc1 (stereo unspecified)	694
O=C(Nc1cccc(-c2ccc(-c3nc4cc(F)ccc4[nH]3)cc2)c1)Nc1ccc(F)c(F)c1F	113
